Measured values as given in patent publication US20260374739A1, “SMALL MOLECULAR WEIGHT CHEMICAL COMPOUND TO ANTAGONIZE EPH-EPHRIN TETRAMERIZATION AND INHIBIT BIDIRECTIONAL SIGNALING” (THE BOARD OF REGENTS OF THE UNIVERSITY OF TEXAS SYSTEM, priority 2022, published 2026).
“And” between values parts separate entries of the source, which are not always exact repeats. Equal values may be shown once.

Experiments:
EphrinB2-EphB2 [1] = target: T1, EphrinB2-EphB2 (Homo sapiens, UniProt P29323); assay: Octet tetramerization inhibition, immobilized human EphrinB2 binding to 50 nM soluble human EphB2
T1 construct: soluble human EphB1-His, EphB2-His, and EphB4-His ectodomains; commercially available human EphrinB1-Fc (EB1), EphrinB2-Fc (EB2), and EphrinB3-Fc (EB3) ectodomain proteins; purchased
T1 sequence (P29323 19-543 limits assumed): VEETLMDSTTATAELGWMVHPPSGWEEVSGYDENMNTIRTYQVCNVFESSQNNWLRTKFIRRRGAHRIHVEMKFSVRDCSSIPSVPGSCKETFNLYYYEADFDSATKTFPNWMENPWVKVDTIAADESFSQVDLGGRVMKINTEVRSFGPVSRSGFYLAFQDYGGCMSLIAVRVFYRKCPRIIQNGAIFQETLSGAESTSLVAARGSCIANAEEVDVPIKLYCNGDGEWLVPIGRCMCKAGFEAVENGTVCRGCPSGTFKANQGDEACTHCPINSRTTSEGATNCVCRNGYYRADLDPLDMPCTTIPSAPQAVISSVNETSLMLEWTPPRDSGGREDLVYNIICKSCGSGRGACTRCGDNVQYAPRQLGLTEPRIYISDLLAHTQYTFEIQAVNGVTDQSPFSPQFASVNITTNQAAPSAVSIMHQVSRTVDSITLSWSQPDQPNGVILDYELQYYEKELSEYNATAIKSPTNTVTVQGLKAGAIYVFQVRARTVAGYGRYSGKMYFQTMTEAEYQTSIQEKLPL

EphrinB2-EphB1 = target: T2, EphrinB2-EphB1 (Homo sapiens, UniProt P54762); assay: Octet 80 sec association/500 sec dissociation, immobilized human EphrinB2-Fc binding to soluble human EphB1-His; conditions: immobilized human EphrinB2, 25 nM soluble human EphB1; for EphB1 Inhibition Percent, Inhibition of Association ONLY: at 3.2 μM and 80 seconds; for EphB1 Inhibition Percent, Inhibition of Association-Dissociation: at 3.2 μM and 580 seconds
T2 construct: soluble human EphB1-His, EphB2-His, and EphB4-His ectodomains; commercially available human EphrinB1-Fc (EB1), EphrinB2-Fc (EB2), and EphrinB3-Fc (EB3) ectodomain proteins; purchased
T2 sequence (P54762 18-540 limits assumed): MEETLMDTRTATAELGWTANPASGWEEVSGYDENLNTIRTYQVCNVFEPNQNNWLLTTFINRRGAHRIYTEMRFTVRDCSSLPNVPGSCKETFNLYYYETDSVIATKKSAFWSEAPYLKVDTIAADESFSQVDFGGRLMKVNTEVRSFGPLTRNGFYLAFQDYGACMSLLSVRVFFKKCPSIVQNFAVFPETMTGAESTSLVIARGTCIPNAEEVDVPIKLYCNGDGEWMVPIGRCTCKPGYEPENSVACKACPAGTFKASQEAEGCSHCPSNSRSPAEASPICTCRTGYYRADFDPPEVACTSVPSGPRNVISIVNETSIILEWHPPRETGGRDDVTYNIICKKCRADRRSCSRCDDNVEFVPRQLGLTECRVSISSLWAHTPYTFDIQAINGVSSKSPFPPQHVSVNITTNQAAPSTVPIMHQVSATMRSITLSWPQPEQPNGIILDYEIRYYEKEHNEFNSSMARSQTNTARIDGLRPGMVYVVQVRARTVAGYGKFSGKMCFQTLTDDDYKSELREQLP
Procedure, shortened: (§1)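 EphrinB2-Fc captured on AHC biosensors, then soluble His-tagged EphB ectodomain (25 nM for % inhibition runs) associated 80 s and dissociated 500 s in PBS, 0.05% Tween-20, 1% DMSO ± compound. Compounds tested at 0.1–3.2 μM with a 10 μM max standard; IC50 from AUC of full traces or at 75 s and 135 s.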

EphrinB2-EphB2 [2] = target: T1, EphrinB2-EphB2; assay: Octet 80 sec association/500 sec dissociation, immobilized human EphrinB2-Fc binding to soluble human EphB2-His; conditions: immobilized human EphrinB2, 25 nM soluble human EphB2; for EphB2 Inhibition Percent, Inhibition of Association ONLY: at 3.2 μM and 80 seconds; for EphB2 Inhibition Percent, Inhibition of Association-Dissociation: at 3.2 μM and 580 seconds
Procedure, shortened: as §1

EphrinB2-EphB4 = target: T3, EphrinB2-EphB4 (Homo sapiens, UniProt P54760); assay: Octet 80 sec association/500 sec dissociation, immobilized human EphrinB2-Fc binding to soluble human EphB4-His; conditions: for EphB4 Inhibition Percent, Inhibition of Association ONLY: at 3.2 μM and 80 seconds; for EphB4 Inhibition Percent, Inhibition of Association ONLY / EphB4 Inhibition Percent, Inhibition of Association-Dissociation: immobilized human EphrinB2, 25 nM soluble human EphB4; for EphB4 Inhibition Percent, Inhibition of Association-Dissociation: at 3.2 μM and 580 seconds
T3 construct: soluble human EphB1-His, EphB2-His, and EphB4-His ectodomains; commercially available human EphrinB1-Fc (EB1), EphrinB2-Fc (EB2), and EphrinB3-Fc (EB3) ectodomain proteins; purchased
T3 sequence (P54760 16-539 limits assumed): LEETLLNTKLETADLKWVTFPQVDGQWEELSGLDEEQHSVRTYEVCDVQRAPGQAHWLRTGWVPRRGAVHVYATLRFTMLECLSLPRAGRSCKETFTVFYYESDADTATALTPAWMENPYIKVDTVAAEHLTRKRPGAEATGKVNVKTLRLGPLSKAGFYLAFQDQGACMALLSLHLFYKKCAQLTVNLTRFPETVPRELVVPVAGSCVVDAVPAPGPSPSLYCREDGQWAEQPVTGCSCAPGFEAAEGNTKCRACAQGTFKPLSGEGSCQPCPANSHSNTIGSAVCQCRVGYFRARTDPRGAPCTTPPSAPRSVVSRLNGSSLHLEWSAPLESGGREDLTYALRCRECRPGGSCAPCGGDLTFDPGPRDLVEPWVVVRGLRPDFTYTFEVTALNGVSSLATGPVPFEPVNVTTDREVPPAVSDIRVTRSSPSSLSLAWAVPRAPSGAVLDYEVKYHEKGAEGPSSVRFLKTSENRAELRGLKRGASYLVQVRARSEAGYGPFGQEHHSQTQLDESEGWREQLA
Procedure, shortened: as §1

[3] = Absolute AUC/IC50, Table A, EphrinB2-EphB2
[4] = Absolute Association IC50 (300 sec), Table A, EphrinB2-EphB2
[5] = Absolute Dissociation IC50 (450 sec), Table A, EphrinB2-EphB2
[6] = Relative AUC/IC50, Table A, EphrinB2-EphB2, compound 7: association only
[7] = Relative Association IC50 (300 sec), Table A, EphrinB2-EphB2
[8] = Relative Dissociation IC50 (450 sec), Table A, EphrinB2-EphB2

Row | Structure (SMILES) | IC50 (EphrinB2-EphB2 [1]; [3]) | IC50 (EphrinB2-EphB2 [1]; [4]) | IC50 (EphrinB2-EphB2 [1]; [5]) | IC50 (EphrinB2-EphB2 [1]; [6]) | IC50 (EphrinB2-EphB2 [1]; [7]) | IC50 (EphrinB2-EphB2 [1]; [8]) | EphB1 Inhibition Percent, Inhibition of Association ONLY (EphrinB2-EphB1) | EphB1 Inhibition Percent, Inhibition of Association-Dissociation (EphrinB2-EphB1) | EphB2 Inhibition Percent, Inhibition of Association ONLY (EphrinB2-EphB2 [2]) | EphB2 Inhibition Percent, Inhibition of Association-Dissociation (EphrinB2-EphB2 [2]) | EphB4 Inhibition Percent, Inhibition of Association ONLY (EphrinB2-EphB4) | EphB4 Inhibition Percent, Inhibition of Association-Dissociation (EphrinB2-EphB4) | tetramerization inhibitor activity (EphrinB2-EphB2 [1]) | disruption of unsurmountable tetramer (EphrinB2-EphB2 [1]; 0.8-3.2 μM) | IC50 (EphrinB2-EphB2 [1]; tetramerization inhibitor IC50 (relative), association step, surmountable tetramer) | selectivity among EphrinB2-EphB1/B2/B4 (EphrinB2-EphB4; 3.2 μM)
1 | O=[N+]([O-])c1ccc(N2CCN(Cc3ccc(O)c4ncccc34)CC2)cc1 [Compound 38, 8-hydroxy-5-((4-(4-nitrophenyl)piperazin-1-ium-1-yl)methyl)quinolin-1-ium chloride] | 2.18 µM | 2.29 µM | 1.86 µM | 1.2 µM | 1.23 µM | 1.47 µM | 24.8% | 43.2% | 54.3% | 72.1% | 9.6% | 17.5% | – | – | – | –
2 | COc1ccc(N2CCN(Cc3ccc(O)c4ncccc34)CC2)cc1 [Compound 72, 5-((4-(4-methoxyphenyl)piperazin-1-yl)methyl)quinolin-8-ol] | 2.29 µM | 2.51 µM | 1.51 µM | – | 1.2 µM | 1.07 µM | 30.0% | 44.5% | 39.4% | 60.2% | 19.8% | 33.2% | exhibit strong IC50 values | ability to disrupt some of the unsurmountable tetramer | – | –
3 | Nc1ccc(N2CCN(Cc3ccc(O)c4ncccc34)CC2)cc1 [Compound 39, 5-((4-(4-aminophenyl)piperazin-1-yl)methyl)quinolin-8-ol] | 3.09 µM | 3.02 µM | 2.83 µM | 1.7 µM | 2.75 µM | 2.25 µM | – | 16.9% and 8.0% | 33.9% and 31.2% | 46.4% and 45.6% | 0.4% and 0% | 6.9% and 5.5% | – | – | ~2 µM | less action toward EphB4 and EphB1 but high specificity for EphB2
4 | Oc1c(I)cc(CN2CCN(Cc3ccc(Br)cc3)CC2)c2cccnc12 [Compound 46, 5-((4-(4-bromobenzyl)piperazin-1-yl)methyl)-7-iodoquinolin-8-ol] | 0.63 µM | 0.72 µM | 0.69 µM | 0.52 µM | 0.48 µM | 0.51 µM | 51.6% | 57.2% | 53.0% | 69.6% | 18.1% | 32.0% | exhibit strong IC50 values | – | – | –
5 | COc1ccc(N2CCN(Cc3cc(I)c(O)c4ncccc34)CC2)cc1 [Compound 74, 7-iodo-5-((4-(4-methoxyphenyl)piperazin-1-yl)methyl)quinolin-8-ol] | 0.4 µM | 0.56 µM | 0.42 µM | – | – | – | 47.2% | 58.2% | 50.6% | 70.0% | 21.0% | 43.4% | exhibit strong IC50 values | – | – | –
